In patent US7815949B2, “Estrogenic extracts of Morus alba and uses thereof” (BioNovo, Inc., priority 2004, dated 2010):

Experiments:
ERα or ERβ = assay: ERE-tk-Luc luciferase activation in U937 cells transfected with ERα or ERβ; format: cell-based; settings: human monocytic U937 cells
Description: (§1) Plasmid Construction. […] ERβ mutants were created with QuikChange site-directed mutagenesis kits (Stratagene), by using oligonucleotides containing the mutation. The mutants were sequenced with Sequenase kits (Amersham Pharmacia) to verify the presence of the mutation.
(§2) U937 cells were maintained as described previously, whereas U2OS, MDA-MB435, and MCF-7 cells were maintained and subcultured in phenol red-free Dulbecco's modified Eagle's medium/F-12 media containing 5% fetal bovine serum, 2 mM glutamine, 50 units/ml penicillin, and 50 μg/ml streptomycin. For experiments, cells were collected, transferred to a cuvette, and then electroporated with a Bio-Rad gene pulser as described previously using 3 μg of reporter plasmid and 1 μg of ERα or ERβ expression vectors. After electroporation, the cells were re-suspended in media and plated at 1 ml/dish in 12-well multiplates. […] The concentration of hormone required to produce a half-maximal induction (EC50) or inhibition (IC50) of luciferase activity was calculated with the Prism curve-fitting program (Graph Pad Software, version 2.0b). […] The cells were plated in duplicate at a density of 25,000 cells/35-mm plate in tissue culture medium containing 3% stripped fetal bovine serum. […] After 8 days the cells were counted with a Coulter counter.

ERβ [1] = molecular target: T1, ERβ (Homo sapiens, UniProt Q92731); assay: Repression of TNF-α activation of TNF-RE-tk-Luc in U2OS cells, ERβ; format: cell-based; set-up: expressed in transfected cells; host or cells: U2OS (human osteosarcoma)
T1 sequence (Q92731 whole entry): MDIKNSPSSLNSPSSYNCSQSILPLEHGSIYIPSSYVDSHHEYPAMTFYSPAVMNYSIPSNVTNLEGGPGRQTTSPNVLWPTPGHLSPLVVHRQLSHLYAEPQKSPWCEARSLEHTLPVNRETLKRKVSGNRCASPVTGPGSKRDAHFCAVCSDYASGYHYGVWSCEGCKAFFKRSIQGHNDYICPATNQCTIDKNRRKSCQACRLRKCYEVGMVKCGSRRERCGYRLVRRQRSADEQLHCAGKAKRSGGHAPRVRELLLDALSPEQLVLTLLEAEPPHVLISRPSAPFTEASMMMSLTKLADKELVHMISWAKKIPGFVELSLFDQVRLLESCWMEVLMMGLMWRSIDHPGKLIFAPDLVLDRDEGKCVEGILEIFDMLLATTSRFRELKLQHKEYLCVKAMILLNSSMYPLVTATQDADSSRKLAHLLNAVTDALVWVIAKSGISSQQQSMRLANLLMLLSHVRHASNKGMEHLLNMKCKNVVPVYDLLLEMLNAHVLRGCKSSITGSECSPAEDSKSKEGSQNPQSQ
Description: as §2
The extracts (a and b) were than decanted and only the soluble material was used.

ERβ [2] = molecular target: T1, ERβ; settings: in the presence of ERβ
Description: as §1, §2

TNF-RE-tk-Luc = assay: Antiestrogen effect on TNF-RE-tk-Luc (Example 2); format: cell-based; settings: for effect on the repression induced by E2: TNF-RE-tk-Luc; for activation of TNF-RE-tk-Luc: antiestrogens, in contrast to E2
Description: as §1, §2

breast cancer = settings: among 5129 women in the treatment group, median follow-up 40 months; cited from earlier work
[3] = system: estrogen receptor-positive breast cancer; settings: five years of therapy; cited from earlier work
[4] = system: primary invasive breast cancer; settings: women at high risk for breast cancer; cited from earlier work

C[C@]12CC[C@@H]3c4ccc(O)cc4CC[C@H]3[C@@H]1CC[C@@H]2O [E2, estradiol]
greater activation of the ERE in the presence of ERα compared to ERβ (ERα or ERβ): 10 fold | repression of TNF-α activation of TNF-RE (ERβ [1]): 100% | repression of TNF-α activation of TNF-RE-tk-Luc (ERβ [2]): 60-80%

C[C@]12CC[C@@H]3c4ccc(O)cc4C[C@@H](CCCCCCCCC[S+]([O-])CCCC(F)(F)C(F)(F)F)[C@H]3[C@@H]1CC[C@@H]2O (stereo partly shown) [ICI 182, 780]
effect on the repression induced by E2 (TNF-RE-tk-Luc): abolished | activation of TNF-RE-tk-Luc (TNF-RE-tk-Luc): 2 fold

O=C(c1ccc(OCCN2CCCCC2)cc1)c1c(-c2ccc(O)cc2)sc2cc(O)ccc12 [raloxifene]
effect on the repression induced by E2 (TNF-RE-tk-Luc): abolished | activation of TNF-RE-tk-Luc (TNF-RE-tk-Luc): 2 fold | cases of breast cancer (breast cancer): 13 cases

CC/C(=C(\c1ccccc1)c1ccc(OCCN(C)C)cc1)c1ccccc1 [tamoxifen]
effect on the repression induced by E2 (TNF-RE-tk-Luc): abolished | activation of TNF-RE-tk-Luc (TNF-RE-tk-Luc): 2 fold | reduction of mortality from breast cancer [3]: 22% | reduction of the risk of recurrences [3]: 42% | reduction of the risk of primary invasive breast cancer [4]: 49%
